We go through three molecules from article PMC8531552, “Full-Length Galectin-3 Is Required for High Affinity Microbial Interactions and Antimicrobial Activity” (Frontiers in Microbiology, 2021).

In assay [1] the test system is K. pneumoniae O1. In words: Flow cytometry analysis of galectin binding to intact bacteria. More on the design: species or system Klebsiella pneumoniae O1. The protocol: (§1) To examine potential binding by each galectin, bacteria were resuspended and washed twice in PBS at 4°C and then incubated with 0.1μM Alexa Fluor™ 488 labeled Gal-3 or Gal-3C at 4°C for 20min. In some experiments, Gal-3 or Gal-3C were co-incubated with 20mM thiodigalactoside (TDG) for 10min before incubation with the bacteria as a control. After incubation, cells were washed twice and resuspended them in 400μl PBS for flow cytometry analysis using FACSCanto II flow cytometer (BD Biosciences). The data were processed with FlowJo version 10.
A general note: In flow cytometry, cells or beads pass a laser one at a time.

The subject of assay [2] is P. alcalifaciens O5. Described as above. More on the design: species or system Providentia alcalifaciens O5. The protocol: as §1
The target in a further assay is T1, human Gal-3 (Homo sapiens, UniProt P17931).
T1 construct: made in house; host or cells: E. coli BL21 (DE3)
In words: CFG glycan microarray binding of Alexa Fluor 488 labeled Gal-3. The protocol: (§2) Galectins were labeled with Alexa Fluor™ 488 NHS Ester (succinimidyl ester) by incubating 2mg/ml galectin with 1mg Alexa Fluor™ 488 for 1h at room temperature and avoid from light as outlined previously ([Stowell et al., 2004]). […] While 2-ME is not required for Gal-3 activity, this approach was used to provide a consistent protocol for all galectin purification. […] Finally, labeled galectin was applied to CFG glycan microarray (CFG) and MGM prepared as described previously ([Blixt et al., 2004]; [Stowell et al., 2008a], [2014]; [Song et al., 2009]; [Wu et al., 2021a]). […] The slide was dried by microcentrifugation, and an image of bound fluorescence was obtained using a microarray scanner (GenePix 4000 B, Molecular devices). […] For non-saturated positive glycan interactions, the relative fluorescence units were plotted as a percent of the maximal binding at the highest concentration examined.
(§3) In order to compare the relative binding affinities of Gal-3 and Gal-3C toward blood group antigens and other glycan structures present on the array, we calculated the relative KD generated from binding isotherm data for each galectin toward various blood group antigens, polylactosamine (polyLacNAc), and other common structural modifications previously shown to influence galectin recognition (e.g., α2-6 sialylation).

Assay [3] has as its target T2, human Gal-3C (C-terminal domain of Gal-3) (Homo sapiens, UniProt P17931).
T2 construct: made in house; host or cells: E. coli BL21 (DE3)
In words: CFG glycan microarray binding of Alexa Fluor 488 labeled Gal-3C. Here is the method:
as §2, §3

In assay [4] the test system is P. alcalifaciens O21. The assay can be described thus: Flow cytometry analysis of galectin binding to intact bacteria. The conditions noted are these: 0.1μM Alexa Fluor 488 labeled galectin, 4°C, 20min. More on the design: species or system Providentia alcalifaciens O21. The protocol:
as §1

For a further assay, the system named is K. pneumoniae O4. In words: Bacteria viability by CFU enumeration. Format: cell-based, Klebsiella pneumoniae O4. The following applies: 0.04–10μM, 37°C, 2h. Here is the method: (§4) When assaying potential antimicrobial effects of Gal-3 and Gal-3C, each strain was assessed in the mid-logarithmic growth phase (OD600 of ~0.1) and grown in LB media as outlined previously ([Arthur et al., 2015b]). Bacterial cells were incubated with the concentrations of each galectin indicated in the figure legends (0.04–10μM) at 37°C for 2h with shaking at 250rpm. Bacteria were then pipetted and plated on LB agar plate to determine the number of viable bacteria by CFU enumeration.

Assay [5] concerns K. pneumoniae O1. The assay can be described thus: Bacteria viability by CFU enumeration. The following applies: 37°C, 2h. Format: cell-based, Klebsiella pneumoniae O1. The protocol: as §4
Assay [6] has as its system P. alcalifaciens O21. In words: Bacteria viability by CFU enumeration. The following applies: 0.04–10μM, 37°C, 2h. Format: cell-based, Providentia alcalifaciens O21. The protocol: as §4
Assay [7] deals with P. alcalifaciens O5. In words: Bacteria viability by CFU enumeration. The following applies: 37°C, 2h. The class given is cell-based, Providentia alcalifaciens O5. Here is the method: as §4
Setting [8] is: 20mM TDG co-incubated with galectin.
Where [9] appears, read: 0.1μM Alexa Fluor 488 labeled galectin, 4°C, 20min.

T2 sequence (P17931 118-248 limits assumed): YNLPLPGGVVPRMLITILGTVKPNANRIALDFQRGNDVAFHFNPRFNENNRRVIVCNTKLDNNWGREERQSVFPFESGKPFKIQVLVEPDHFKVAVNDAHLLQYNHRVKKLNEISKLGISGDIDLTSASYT
T1 sequence (P17931 whole entry): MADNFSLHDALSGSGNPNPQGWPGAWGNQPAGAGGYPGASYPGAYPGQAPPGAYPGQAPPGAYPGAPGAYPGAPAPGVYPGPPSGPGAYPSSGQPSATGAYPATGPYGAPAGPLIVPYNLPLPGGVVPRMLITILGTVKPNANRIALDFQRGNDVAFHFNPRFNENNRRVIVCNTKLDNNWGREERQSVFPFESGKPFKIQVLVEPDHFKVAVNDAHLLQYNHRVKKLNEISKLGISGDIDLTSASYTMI

Consider `OC[C@H]1O[C@@H](S[C@@H]2O[C@H](CO)[C@H](O)[C@H](O)[C@H]2O)[C@H](O)[C@@H](O)[C@H]1O` [TDG, thiodigalactoside, reference compound], for which, in the assay on K. pneumoniae O1 [1] (setting [8]), the “effect on Gal-3 and Gal-3C binding to K. pneumoniae O1” value is given as “prevented binding”. Also, in the assay with P. alcalifaciens O5 [2] (setting [8]), the “effect on Gal-3 and Gal-3C engagement of P. alcalifaciens O5” value is on record as “inhibited recognition”.
As for blood group B, the “Gal-3 concentration at which recognition was observed” value on human Gal-3 (CFG array, virtually no binding at or below 0.12μM) is 0.36 µM. Also, the “Gal-3 binding on CFG array” value at human Gal-3 (binding isotherms, Fig 2 and 3) is recorded as “high affinity interactions”. Further, in [3] (CFG array), the “Gal-3C concentration required for similar absolute binding as Gal-3 at […]” value came out at 3.3 µM. In [3] (binding isotherms, Fig 2), the “Gal-3C binding on CFG array” value is reported as “high affinity interactions”.
Regarding “Gal-3: recombinant human galectin-3, full-length chimeric galectin expressed in E. coli”, in the assay on P. alcalifaciens O21 [4], the “binding to P. alcalifaciens O21” value is “failed to result in any detectable binding”. In addition, in the assay on K. pneumoniae O1 [1] (setting [9]), the “binding to K. pneumoniae O1” value is recorded as “bound K. pneumoniae O1”. Moreover, in the assay with K. pneumoniae O4, the “impact on viability of K. pneumoniae O4” value is recorded as “failed to impact the viability”. Besides, the “impact on viability of K. pneumoniae O1” value with K. pneumoniae O1 [5] (0.04–10μM) is “loss of microbial viability was noted at higher concentrations”. Also, the EC50 was 750 nM in the assay on K. pneumoniae O1 [5] (CFU enumeration, read-out: EC50 toward K. pneumoniae O1 viability) and approximately 170 nM in the assay with P. alcalifaciens O5 [7] (CFU enumeration, read-out: effective concentration 50 (EC50), viability of P. alcalifaciens O5). Moreover, the “impact on viability of P. alcalifaciens O21” value in the assay on P. alcalifaciens O21 [6] was “failed to result in any detectable impact on microbial viability”. Further, in the assay with P. alcalifaciens O5 [2] (setting [9]), the “binding to P. alcalifaciens O5” value is on record as “Clear interactions”. The “impact on viability of P. alcalifaciens O5” value with P. alcalifaciens O5 [7] (0.04–10μM) is listed as “reduced viability”.
